Reference: publication PMC2745946 (International immunopharmacology, 2009)
Entries after “also recorded” stand apart in the source; their conditions may differ. Like-named read-outs stand apart in the source and are kept apart here.

What was measured:
NF-κB [1] = test: TNF-α induced NF-κB luciferase reporter assay in C2C12 myotubes; assay type: cell-based; conditions: 0.0001-10μM, TNF-α 10ng/ml
NF-κB [2] = test: TNF-α induced NF-κB luciferase reporter assay in C2C12 myoblasts; assay type: cell-based; conditions: for NF-κB inhibition in myoblasts: 0.0001-10μM, TNF-α 10ng/ml; for Luciferase activity (reduced to): 1μg/ml, myoblasts
C2C12 myotubes = test: MTT cell viability assay in C2C12 myotubes; conditions: for Myotubes % Cell Viability: MTT at respective IC50 concentration, relative to untreated controls
NF-κB p65 = test: Immunostaining for NF-κB p65 nuclear translocation in C2C12 myoblasts; assay type: cell-based; conditions: drug 1μg/ml 24 hours, then TNF-α 24 hours
[3] = MTT cell viability assay in C2C12 myoblasts; conditions: mouse
NF-κB [4] = conditions: read-out: IC50, LPS-induced NF-κB; macrophage cell line; cited from earlier work
[5] = 10mg/kg; cited from earlier work
[6] = MTT cell viability assay in C2C12 myotubes; conditions: mouse
[7] = mdx mouse; 5mg/kg; cited from earlier work
NF-κB [8] = conditions: read-out: IC50, NF-κB inhibition; macrophage reporter cell line; cited from earlier work
[9] = mdx model; 1.2mg/kg; cited from earlier work
in vitro = conditions: mouse
C2C12 myoblasts = test: MTT cell viability assay in C2C12 myoblasts; conditions: MTT at respective IC50 concentration; relative to untreated controls
NF-κB [10] = conditions: primary human peripheral blood and mononuclear cells; cited from earlier work
[11] = Myoblast, read-out: NF-κB inhibition luciferase activity, Mean ± SD

With `CC(C)(C)c1ccc(S(=O)(=O)/C=C/C#N)cc1` [Bay 11-7085] the “NF-κB inhibition in myotubes (words)” value (NF-κB [1]; listed as BAY 11-7085) was “no inhibition”, the “NF-κB inhibition in myotubes (words)” value (NF-κB [1]; listed as Bay-11 7085) was “exhibited NF-κB inhibition” and the “NF-κB inhibition in myoblasts” value (NF-κB [2]) was “but not myoblasts”. For the same molecule, the “Myotubes % Cell Viability” value (C2C12 myotubes) was 87.2%.

In the case of `CC1=C(O)C(=O)C=C2C1=CC=C1[C@@]2(C)CC[C@@]2(C)[C@@H]3C[C@](C)(C(=O)O)CC[C@]3(C)CC[C@]12C` [Celastrol], the “NF-κB nuclear translocation (qualitative)” value (NF-κB p65) is reported as “appeared to block nuclear translocation; also recorded: reduced the amount of nuclear translocation”, the viability at 48 h [3] is reported as 83.9% and the IC50 (NF-κB [2]; Mus musculus, C2C12, read-out: IC50 in myocytes) is reported as ~1 nM. The IC50 (NF-κB [4]) was 270 nM, the Paw swelling [5] was “reduce paw swelling a similar amount as Prednisolone” and the viability at 48 h [6] was 72.1%. The Toxicity to myotubes (C2C12 myotubes; 10μg/ml, MTT) was 35%.

In the case of `O=C(O[C@@H]1Cc2c(O)cc(O)cc2O[C@@H]1c1cc(O)c(O)c(O)c1)c1cc(O)c(O)c(O)c1` [EGCG, Epigallocatechin gallate], the “NF-κB inhibition in myotubes (words)” value (NF-κB [1]) is listed as “did not inhibit NF-κB”, the “Muscle histology, force contractions and creatine kinase leakage” value [7] is listed as “improve mdx mouse muscle histology, force contractions and creatine kinase leakage” and the “NF-κB inhibition in myoblasts” value (NF-κB [2]) is listed as “did not inhibit NF-κB”. For the same molecule, the “NF-κB inhibition in myocytes, myoblasts and myotubes together” value (from here on “NF-κB inhibition in myocytes”) (NF-κB [2]) was “mostly ineffective” and the IC50 (NF-κB [8]) was 12000 nM.

In the case of `Cc1ccc(=O)n(-c2ccccc2)c1` [Pirfenidone], the “NF-κB inhibition in myotubes (words)” value (NF-κB [1]) is reported as “did not inhibit NF-κB”, the “NF-κB inhibition in myoblasts” value (NF-κB [2]) is reported as “did not inhibit NF-κB” and the “NF-κB inhibition in myocytes” value (NF-κB [2]) is reported as “mostly ineffective”. For the same molecule, the Cardiac function [9] was “improve cardiac function”.

With `C[C@]12C=CC(=O)C=C1CC[C@@H]1[C@@H]2[C@@H](O)C[C@@]2(C)[C@H]1CC[C@]2(O)C(=O)CO` [Prednisolone] the “NF-κB nuclear translocation (qualitative)” value (NF-κB p65) was “appeared to block nuclear translocation; also recorded: reduced the amount of nuclear translocation”, the viability at 48 h ([3]; C2C12 myoblasts containing an NF-κB luciferase reporter) was 78.8% and the inhibition at 0.1 µM (NF-κB [2]; [11]) was 51.7 ± 13.6%. The inhibition at 1 µM (NF-κB [2]; [11]) was 79.2 ± 9.22%, the inhibition at 10 µM (NF-κB [2]; [11]) was 85.4 ± 4.59% and the “Luciferase activity (reduced to)” value (NF-κB [2]; long regime: 24 h pretreatment, 24 h TNF-α) was 38%. For the same molecule, the “NF-κB inhibition in myocytes” value (NF-κB [2]) was “effective at inhibiting the NF-κB pathway”, the “Luciferase activity (reduced to)” value (NF-κB [2]; short regime: 30min pretreatment, 3hr TNF-α) was 49.5% and the viability at 48 h (in vitro) was 81.6%.

In the case of `CC1=C(CO)C(=O)O[C@@H]([C@@H](C)[C@H]2CC[C@H]3[C@@H]4C[C@H]5O[C@]56[C@@H](O)C=CC(=O)[C@]6(C)[C@H]4CC[C@]23C)C1` [Withaferin], the “Myoblasts % Cell Viability” value (C2C12 myoblasts) is given as 61.1%, the “NF-κB inhibition in myocytes” value (NF-κB [2]) is given as “effective at inhibiting NF-κB” and the Maximal effective dose (NF-κB [10]) is given as 1.0 mg/mL. For the same molecule, the “Myotubes % Cell Viability” value (C2C12 myotubes) was 72.7%.

With “Thymosin β4: small actin-sequestering protein that reduces inflammation and promotes healing in multiple tissues” the “NF-κB inhibition in myotubes (words)” value (NF-κB [1]) was “did not inhibit NF-κB”, the “NF-κB inhibition in myoblasts” value (NF-κB [2]) was “did not inhibit NF-κB” and the “NF-κB inhibition in myocytes” value (NF-κB [2]) was “mostly ineffective”.
